The record followed here is patent US20050014811A1, “Substituted benzimidazole compounds and their use for the treatment of cancer” (Aventis Pharma S.A., priority 2001, published 2005).

The IC50 is the point on the concentration scale where inhibition reaches its midpoint. One may read the inhibition as the percentage by which the read-out fell short of the control.

One test concerns the target CDK2/CyclinE (Homo sapiens, UniProt P24941). In words: CDK2/CyclinE Flashplate assay, 96-well format, biotinylated-Rb peptide substrate. Type of test: biochemical. On the procedure:
This is a CDK2/CyclinE kinase assay in a 96-well Streptavidin-coated Flashplate with a biotinylated-Rb peptide substrate.
Each point is tested in duplicate
Biotinylated-Rb: Biotin-[…]-OH
• 1. Prepare substrate: 1 mg/ml solution made fresh in PBS. • 2. Add 4 μg per well to the Flashplate. • 3. Incubate for 2 hours at RT. • 4. From 10 mM inhibitor stocks in DMSO, make 1 mM, 300 μM, 100 μM, 30 μM and 10 μM series of dilution in DMSO. • 5. Was the Flashplate 3 times with 300 μl PBS to remove unbound peptide substrate. • 6. Add the CDK2/CyclinE kinase: 200 ng per well, in a volume of 90 μl in kinase buffer (except for “no enzyme” control wells). • 7. Add 1 μl per well of inhibitor to test 10 μM, 3 μM, 1 μM, 0.3 μM and 0.1 μM in final concentration per 100 μl in each well. • 8. Shake gently the Flashplate 1 minute. • 9. Incubate 30 minutes on wet ice. • 10. Initiate the reaction with 10 μl kinase buffer containing 1 μM final cold ATP and 1 μCi final ^33P-ATP per well. • 11. Shake gently the Flashplate 1 minute. • 12. Incubate 45 minutes at RT (no shaking). • 13. Wash the Flashplate 3 times with 300 μl PBS
14. Count to detect the incorporation of ^33P-ATP by the kinase to the Rb phosphorylation site.

A further test deals with CDK4/CyclinD1 (Homo sapiens, UniProt P11802). In words: CDK4/CyclinD1 Flashplate assay, 96-well format, biotinylated-Rb peptide substrate. Type of test: biochemical. In a few lines: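 Biotinylated Rb peptide bound to streptavidin Flashplate; CDK4/CyclinD1 (70 ng/well) preincubated 30 min on ice with compound at 10, 3, 1, 0.3 and 0.1 μM final. Reaction with 1 μM cold ATP plus 33P-ATP for 45 min at RT; incorporated 33P counted, duplicates.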
CDK4/CyclinD1, sequence (P11802 whole entry, species assumed): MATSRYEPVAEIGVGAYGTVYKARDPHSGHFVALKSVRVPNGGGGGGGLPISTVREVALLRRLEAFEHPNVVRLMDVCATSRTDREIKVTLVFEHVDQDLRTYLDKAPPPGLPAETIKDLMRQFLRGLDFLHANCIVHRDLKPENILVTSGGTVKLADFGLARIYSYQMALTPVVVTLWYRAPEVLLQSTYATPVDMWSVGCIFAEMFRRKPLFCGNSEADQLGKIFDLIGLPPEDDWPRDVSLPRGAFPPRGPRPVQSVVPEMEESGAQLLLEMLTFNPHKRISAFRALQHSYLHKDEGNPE
CDK4/CyclinD1, sequence (P24385 whole entry partner, species assumed): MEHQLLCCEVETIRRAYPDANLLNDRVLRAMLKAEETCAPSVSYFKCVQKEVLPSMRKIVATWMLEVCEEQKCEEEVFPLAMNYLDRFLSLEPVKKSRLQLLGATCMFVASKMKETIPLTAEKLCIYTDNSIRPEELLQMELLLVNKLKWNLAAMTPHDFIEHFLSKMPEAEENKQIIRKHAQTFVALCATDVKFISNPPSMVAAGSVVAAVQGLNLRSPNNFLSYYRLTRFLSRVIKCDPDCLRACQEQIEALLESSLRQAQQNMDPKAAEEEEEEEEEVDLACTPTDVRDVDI

Take `CCN1CCCC1CNC(=O)Nc1nc2cc(OS(=O)(=O)c3ccc(NCC4CCCO4)cc3)ccc2[nH]1` (stereo not shown) [Example 59-f, 4-[(Tetrahydro-furan-2-ylmethyl)-amino]-benzenesulfonic acid 2-[3-(1-ethyl-pyrrolidin-2-ylmethyl)-ureido]-1H-benzoimidazol-5-yl ester]: the IC50 worked out at 60 nM on CDK2/CyclinE and 1800 nM on CDK4/CyclinD1.
`O=C(Nc1nc2cc(OS(=O)(=O)c3ccc(NC4CCCC4)cc3)ccc2[nH]1)NC1CCCCC1` [Example 58-b, 4-Cyclopentylamino-benzenesulfonic acid 2-(3-cyclohexyl-ureido)-1H-benzoimidazol-5-yl ester]: the IC50 at CDK2/CyclinE stood at 900 nM. This compound also displayed an inhibition at 10 µM on CDK4/CyclinD1 of 70%.
`CN(C)C(=O)Nc1nc2cc(OS(=O)(=O)c3ccc(NC4CCCC4)cc3)ccc2[nH]1` [Example 32, N-[5-(4-cyclopentylaminophenylsulfonyloxy)-1H-benzimidazole-2-yl]-dimethylurea]: the values for the IC50 against CDK2/CyclinE and against CDK4/CyclinD1 were 1100 nM and above 5000 nM, respectively.
On the same counts, the results for `COC(=O)Nc1nc2cc(OS(=O)(=O)c3cccc(OC)c3)ccc2[nH]1` [Example 62-i, 3-Methoxy-benzenesulfonic acid 2-methoxycarbonylamino-1H-benzoimidazol-5-yl ester] are 1000 nM and 1500 nM.
The corresponding values for `COC(=O)Nc1nc2cc(OS(=O)(=O)c3ccc(NC4CCCC4)cc3)ccc2[nH]1` [Example 19, Methyl-5-(4-cyclopentylaminophenylsulfonyloxy) benzimidazole-2-carbamate] are 700 nM and 2920 nM.
The corresponding values for `CC(C)NC(=O)Nc1nc2cc(OS(=O)(=O)c3ccc(NC4CCCC4)cc3)ccc2[nH]1` [Example 34, 4-Cyclopentylamino-benzenesulfonic acid 2-(3-isopropyl-ureido)-1H-benzoimidazol-5-yl ester] are 120 nM and 1180 nM.
For `O=C(Nc1nc2cc(OS(=O)(=O)c3ccc(-n4ccnc4)cc3)ccc2[nH]1)NC1CCCCC1` [Example 57-b, 4-Imidazol-1-yl-benzenesulfonic acid 2-(3-cyclohexyl-ureido)-1H-benzoimidazol-5-yl ester], the IC50 on CDK2/CyclinE came out at 1900 nM. Further, testing at 10 µM against CDK4/CyclinD1 gave an inhibition of 51%.
As to `CCNc1ccc(S(=O)(=O)Oc2ccc3[nH]c(NC(=O)OC)nc3c2)cc1` [Example 6, Methyl-5-(4-ethylaminophenylsulfonyloxy) benzimidazole-2-carbamate], the half-inhibitory concentration (IC50) on CDK2/CyclinE turned out to be 300 nM; on CDK4/CyclinD1, 840 nM.
On the same counts, the results for `COCC(=O)Nc1nc2cc(OS(=O)(=O)c3ccc(NC4CCCC4)cc3)ccc2[nH]1` [Example 28, 4-Cyclopentylamino-benzenesulfonic acid 2-(2-methoxy-acetylamino)-1H-benzoimidazol-5-yl ester] are 600 nM and 1030 nM.
The corresponding values for `CNC(=O)Nc1nc2cc(OS(=O)(=O)c3ccc(-n4ccnc4)cc3)ccc2[nH]1` [Example 30, N-[5-(4-[imidazolyl]-phenylsulfonyloxy)-1H-benzimidazole-2-yl]-methylurea] are 900 nM and 1800 nM.
The corresponding values for `CCCCNC(=O)Nc1nc2cc(OS(=O)(=O)c3ccc(NC4CCCC4)cc3)ccc2[nH]1` [Example 35, 4-Cyclopentylamino-benzenesulfonic acid 2-(3-butyl-ureido)-1H-benzoimidazol-5-yl ester] are 120 nM and 1100 nM.
Regarding `CC(C)CNC(=O)Nc1nc2cc(OS(=O)(=O)c3ccc(NC4CCCC4)cc3)ccc2[nH]1` [Example 43, 4-Cyclopentylamino-benzenesulfonic acid 2-(3-isobutyl-ureido)-1H-benzoimidazol-5-yl ester], the IC50 is 200 nM on CDK2/CyclinE and 1900 nM on CDK4/CyclinD1.
Consider `O=C(Nc1nc2cc(OS(=O)(=O)c3ccc(-n4ccnc4)cc3)ccc2[nH]1)Nc1ccccc1F` [Example 36, 4-Imidazol-1-yl-benzenesulfonic acid 2-[3-(2-fluoro-phenyl)-ureido]-1H-benzoimidazol-5-yl ester], for which the IC50 against CDK2/CyclinE is 530 nM; against CDK4/CyclinD1, 770 nM.
On the same counts, the results for `O=C(NCCO)Nc1nc2cc(OS(=O)(=O)c3ccc(NCC4CCCO4)cc3)ccc2[nH]1` (stereo not shown) [Example 59-b, 4-[(Tetrahydro-furan-2-ylmethyl)-amino]-benzenesulfonic acid 2-[3-(2-hydroxy-ethyl)-ureido]-1H-benzoimidazol-5-yl ester] are 7 nM and 300 nM.
On the same counts, the results for `O=C(NCc1cccnc1)Nc1nc2cc(OS(=O)(=O)c3ccc(NC4CCCC4)cc3)ccc2[nH]1` [Example 58-j, 4-Cyclopentylamino-benzenesulfonic acid 2-(3-pyridin-3-ylmethyl-ureido)-1H-benzoimidazol-5-yl ester] are 9 nM and 500 nM.
On to `NC(=O)CCNC(=O)Nc1nc2cc(OS(=O)(=O)c3ccc(NC4CCCC4)cc3)ccc2[nH]1` [Example 58-ad, 4-Cyclopentylamino-benzenesulfonic acid 2-[3-(2-carbamoyl-ethyl)-ureido]-1H-benzoimidazol-5-yl ester], for which the IC50 against CDK2/CyclinE worked out at 16 nM; on CDK4/CyclinD1, 130 nM.
On the same counts, the results for `NC(=O)CNC(=O)Nc1nc2cc(OS(=O)(=O)c3ccc(NC4CCCC4)cc3)ccc2[nH]1` [Example 58-s, 4-Cyclopentylamino-benzenesulfonic acid 2-(3-carbamoylmethyl-ureido)-1H-benzoimidazol-5-yl ester] are 20 nM and 12 nM.
Regarding `O=C(Nc1ccccc1)Nc1nc2cc(OS(=O)(=O)c3ccc(-n4ccnc4)cc3)ccc2[nH]1` [Example 57-a, 4-Imidazol-1-yl-benzenesulfonic acid 2-(3-phenyl-ureido)-1H-benzoimidazol-5-yl ester], the IC50 against CDK2/CyclinE amounted to 240 nM; at CDK4/CyclinD1, 1000 nM.
With `CN1CCN(CCCNC(=O)Nc2nc3cc(OS(=O)(=O)c4ccc(-n5ccnc5)cc4)ccc3[nH]2)CC1` [Example 57-k, 4-Imidazol-1-yl-benzenesulfonic acid 2-{3-[3-(4-methyl-piperazin-1-yl)-propyl]-ureido}-1H-benzoimidazol-5-yl ester], the half-maximal inhibitory concentration (IC50) at CDK2/CyclinE worked out at 600 nM. This compound also had an inhibition at 10 µM against CDK4/CyclinD1 of 49%.
Regarding `O=C(NCc1ccccc1)Nc1nc2cc(OS(=O)(=O)c3ccc(NC4CCCC4)cc3)ccc2[nH]1` [Example 58-l, 4-Cyclopentylamino-benzenesulfonic acid 2-(3-benzyl-ureido)-1H-benzoimidazol-5-yl ester], the IC50 turned out to be 30 nM on CDK2/CyclinE and 1000 nM on CDK4/CyclinD1.
The corresponding values for `CC(C)(C)OC(=O)NCC(=O)Nc1nc2cc(OS(=O)(=O)c3ccc(NC4CCCC4)cc3)ccc2[nH]1` [Example 24, 4-Cyclopentylamino-benzenesulfonic acid 2-(2-tert-butoxycarbonylamino-acetylamino)-1H-benzoimidazol-5-yl ester] are 400 nM and 600 nM.
The corresponding values for `CN1CCN(CCCNC(=O)Nc2nc3cc(OS(=O)(=O)c4ccc(NCC5CCCO5)cc4)ccc3[nH]2)CC1` (stereo not shown) [Example 59-m, 4-[(Tetrahydro-furan-2-ylmethyl)-amino]-benzenesulfonic acid 2-{3-[3-(4-methyl-piperazin-1-yl)-propyl]-ureido}-1H-benzoimidazol-5-yl ester] are 30 nM and 1200 nM.
The corresponding values for `COc1ccc(Nc2nc3cc(OS(=O)(=O)c4ccc(NC5CCCC5)cc4)ccc3[nH]2)cc1OC` [Example 69, 4-cyclopentylamino-benzenesulfonic acid 2-(3,4-dimethoxy-phenylamino)-1H-benzoimidazol-5-yl ester] are 130 nM and 840 nM.
Turning to `COC(=O)Nc1nc2cc(OS(=O)(=O)c3ccc(NCC4CCCO4)cc3)ccc2[nH]1` (stereo not shown) [Example 18, Methyl-5-(4-[1-tetrathydrofurylmethyl]aminophenyl-sulfonyloxy) benzimidazole-2-carbamate], the IC50 on CDK2/CyclinE was 600 nM; at CDK4/CyclinD1, 1300 nM.
The corresponding values for `O=C(NCCN1CCCC1)Nc1nc2cc(OS(=O)(=O)c3ccc(NCC4CCCO4)cc3)ccc2[nH]1` (stereo not shown) [Example 59-g, 4-[(Tetrahydro-furan-2-ylmethyl)-amino]-benzenesulfonic acid 2-[3-(2-pyrrolidin-1-yl-ethyl)-ureido]-1H-benzoimidazol-5-yl ester] are 200 nM and 1800 nM.
The corresponding values for `Cc1cc(C)cc(Nc2nc3cc(OS(=O)(=O)c4ccc(NC5CCCC5)cc4)ccc3[nH]2)c1` [Example 70-c, 4-Cyclopentylamino-benzenesulfonic acid 2-(3,5-dimethyl-phenylamino)-1H-benzoimidazol-5-yl ester] are 800 nM and 2000 nM.
